Measurements as given in patent US9284303B2, “Benzimidazole cannabinoid agonists bearing a substituted heterocyclic group” (priority 2006, dated 2016).
Like-named read-outs stand apart in the source and are kept apart here.

Tests used:
[1] = biological target: T1, human CB2 (hCB2) receptor (Homo sapiens, UniProt P34972); test: Inhibition of forskolin-activated cAMP production upon activation of hCB2 (HTRF), CHO-K1 cells; assay type: cell-based; details: for ratio CB2 agonism over CB1 agonism: Table C-1, selectivity hCB2 over hCB1; for EC50: forskolin-activated cAMP, pEC50=-log(EC50); for ratio CB2 over CB1 agonism: Table C-3, comparison of art compounds A to E with compounds of the invention
T1 construct: expressed in transfected cells; host or cells: CHO-K1
Experimental: (§1) Functional activity of the test compounds was assessed by measuring their potency to inhibit forskolin-activated cAMP production upon activation of the human CB1 (hCB1) or human CB2 (hCB2) receptor through homogenous time resolved fluorescence (HTRF) assays.
(§2) Before the experiments, medium was removed, cells were washed with PBS/EDTA (140 mM NaCl, 1 mM Naz-EDTA, 8 mM Na2HPO4.2H2O, 8.5 mM KH2PO4, 2.7 mM KCl, 21 mM glucose), resuspended in stimulation buffer (HBSS 1x, IBMX 1 mM, Hepes 5 mM, MgCl2 10 mM, BSA 0.1%, pH 7.4). Cells were diluted to a concentration of 8.10^5 cell/ml for hCB1 experiments and 10^6 cells/ml for hCB2 experiments. Assays were performed using the cAMP Dynamic HTRF kit (CIS bio international, France) according to the recommendations of the manufacturer.
Then, 20 μl of the diluted hCB2-CHO-K1 cells was added (20,000 cells/well). After 30 minutes incubation in dark at room temperature, 10 μl cAMP-XL665 and 10 μl anti-cAMP cryptate (both at a final dilution of 1/100) was added to the cells.

[2] = biological target: T2, human CB1 (hCB1) receptor (Homo sapiens, UniProt P21554); test: Inhibition of forskolin-activated cAMP production upon activation of hCB1 (HTRF), CHO-K1 cells; assay type: cell-based; details: CB1 pEC50, hCB1-CHO-K1 cells, forskolin-activated cAMP, pEC50=-log(EC50)
T2 construct: expressed in transfected cells; host or cells: CHO-K1
Experimental: as §1
as §2, with “CHO-K1 cells stably transfected with either hCB1 or hCB2 were grown up to 80-90% confluence in T175 Falcon flasks in DMEM/NUT MIX F-12 culture medium complemented with 2% Solution A (5.10^6 IU/l penicillin G, 5 g/l streptomycin sulphate, 5.5 g/l pyruvate, 14.6 g/l L-glutamine, 1M NaOH) and 10% foetal calf serum. Before” for “Before”
For CB1, each well of a 96 flat bottom black polystyrene assay plate (Costar) was filled with 25 μl stimulation buffer containing 6 μM forskolin and either test compound (in 2% DMSO), 2% DMSO or 2 μM CP55490 (in 2% DMSO). Then, 25 μl of the diluted cells was added (20,000 cells/well). After 30 minutes incubation in dark at room temperature, 25 μl cAMP-XL665 and 25 μl anti-cAMP cryptate (both at a final dilution of 1/80) was added to the cells.
After equilibration of the reaction mixtures for 1 to 24 hours in dark at room temperature, fluorescence was measured at 665 nm and 620 nm using a Discovery microplate fluorescence counter (Perkin Elmer), and the signal ratio of 665 nm/620 nm was calculated. The signal ratios of the test compounds were expressed relative to the signal ratios of the DMSO control (maximal signal ratio, no inhibition of cAMP) and CP55490 or WIN55212-2 for hCB1 and hCB2, respectively (minimal signal ratio, maximal inhibition of cAMP). From the dose response curves generated for each test compound, the dose at which 50% of the maximal inhibition of cAMP level is observed (EC50, expressed in the Tables as pEC50=−log(EC50) values) and the level of inhibition reached with 10 μM of the test compound compared to CP55490 (for hCB1) or WIN55212-2 (for hCB2) was calculated.

[3] = hCB2-CHO-K1 cells, read-out: CB2 pEC50 (converted)

T1 sequence (P34972 whole entry): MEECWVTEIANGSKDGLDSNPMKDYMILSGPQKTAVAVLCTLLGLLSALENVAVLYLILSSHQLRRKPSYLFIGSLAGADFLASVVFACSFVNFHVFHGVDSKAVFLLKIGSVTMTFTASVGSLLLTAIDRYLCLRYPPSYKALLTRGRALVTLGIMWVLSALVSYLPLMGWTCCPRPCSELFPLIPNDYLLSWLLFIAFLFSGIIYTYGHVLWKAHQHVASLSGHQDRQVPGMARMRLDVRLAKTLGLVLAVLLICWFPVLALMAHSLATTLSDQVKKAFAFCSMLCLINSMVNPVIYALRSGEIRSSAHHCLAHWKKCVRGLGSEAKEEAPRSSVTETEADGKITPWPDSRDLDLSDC
T2 sequence (P21554 whole entry): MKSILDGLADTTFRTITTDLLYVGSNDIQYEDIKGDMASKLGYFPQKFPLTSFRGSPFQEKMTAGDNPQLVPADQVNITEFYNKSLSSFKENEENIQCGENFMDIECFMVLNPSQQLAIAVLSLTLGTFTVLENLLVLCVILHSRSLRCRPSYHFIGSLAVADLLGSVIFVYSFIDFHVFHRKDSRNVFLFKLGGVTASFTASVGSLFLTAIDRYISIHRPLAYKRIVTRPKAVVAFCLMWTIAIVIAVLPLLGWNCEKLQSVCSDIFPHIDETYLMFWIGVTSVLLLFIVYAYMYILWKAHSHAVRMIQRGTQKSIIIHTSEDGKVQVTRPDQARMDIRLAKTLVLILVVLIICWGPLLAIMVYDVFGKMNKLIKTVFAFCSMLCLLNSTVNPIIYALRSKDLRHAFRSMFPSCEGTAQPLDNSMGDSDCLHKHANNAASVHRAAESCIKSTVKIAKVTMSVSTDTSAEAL

Row | Compound | ratio CB2 agonism over CB1 agonism [1] | EC50 [1, 3] [nM] | EC50 [2] [nM] | other results
1 | CC(C)(C)c1nc2cc(S(=O)(=O)c3ncc(C(F)(F)F)cc3Cl)ccc2n1CC1CCOCC1 [Co. No. 61] | 135 | 1.12 | 151 | 
2 | CC(C)(C)c1nc2cc(S(=O)(=O)c3sc(S(C)(=O)=O)cc3Br)ccc2n1CC1CCOCC1 [Co. No. 63] |  | 0.977 | 2820 | ratio CB2 agonism over CB1 agonism ([1]; listed as 63): 2818
3 | CC(C)(C)c1nc2cc(S(=O)(=O)c3sc(S(C)(=O)=O)cc3Br)ccc2n1CC1CCOCC1 [Co. No. 64] |  |  | 1860 | EC50 ([1]; CB2 pEC50, hCB2-CHO-K1 cells): 0.479 nM; ratio CB2 agonism over CB1 agonism ([1]; listed as 64): 3920
4 | COc1cc(S(=O)(=O)c2ccc3c(c2)nc(C(C)(C)C)n3CC2CCOCC2)ccn1 [Co. No. 70] | 2570 | 0.55 | 1410 | 
5 | CC(C)(C)c1nc2cc(S(=O)(=O)c3ccc(C(=O)N4CCCC4)o3)ccc2n1CC1CCOCC1 [Co. No. 74] | 668 | 3.16 | 2090 | 
6 | CC(C)(C)c1nc2cc(S(=O)(=O)c3ncc(S(C)(=O)=O)cc3Br)ccc2n1CC1CCOCC1 [Co. No. 76] | >832 | 12 | > 10000 | 
7 | CC(C)(C)c1nc2cc(S(=O)(=O)c3cc(S(C)(=O)=O)cnc3O)ccc2n1CC1CCOCC1 [Co. No. 77] | 1303 | 1.95 | 2570 | 
8 | COc1ncc(S(C)(=O)=O)cc1S(=O)(=O)c1ccc2c(c1)nc(C(C)(C)C)n2CC1CCOCC1 [Co. No. 78] | >1380 | 7.24 | > 10000 | 
9 | CC(C)(C)c1nc2cc(S(=O)(=O)c3ccn(C(F)F)c(=O)c3)ccc2n1CC1CCOCC1 [Co. No. 83] | 209 | 2 | 407 | 
10 | CC(C)(C)c1nc2cc([S+]([O-])c3cc[n+]([O-])cc3Br)ccc2n1CC1CCOCC1 (stereo not drawn) [Co. No. 86] |  | 12 | > 10000 | 
11 | CC(C)(C)c1nc2cc(S(=O)(=O)c3ccnc(C#N)c3)ccc2n1CC1CCOCC1 [Co. No. 93] |  |  | > 10000 | EC50 ([1]; CB2 pEC50, hCB2-CHO-K1 cells): 1.48 nM; ratio CB2 agonism over CB1 agonism ([1]; listed as 93): >6761
12 | CC(C)(C)c1nc2cc([S+]([O-])c3cc[n+]([O-])cc3C(F)(F)F)ccc2n1CC1CCOCC1 (stereo not drawn) [Co. No. 95] |  | 5.75 | > 10000 | 
13 | CC(C)(C)c1nc2cc(S(=O)(=O)c3ccc(OCC(F)(F)F)nc3)ccc2n1CC1CCOCC1 [Co. No. 108] | >3890 | 2.57 | > 10000 | 
14 | Cc1cccc(S(=O)(=O)c2ccc3c(c2)nc(C(C)(C)C)n3CC2CCOCC2)n1 [Co. No. 109] | 324 | 0.813 | 263 | 
15 | CC(C)(C)c1nc2cc(S(=O)(=O)c3ccncc3)ccc2n1CC1CCOCC1 [Co. No. A, reference compound] |  |  |  | ratio CB2 over CB1 agonism [1]: 215
16 | CC(C)(C)c1nc2cc(S(=O)(=O)c3cccnc3)ccc2n1CC1CCOCC1 [Co. No. B, reference compound] |  |  |  | ratio CB2 over CB1 agonism [1]: 30
17 | CC(C)(C)c1nc2cc(S(=O)(=O)c3ccccn3)ccc2n1CC1CCOCC1 [Co. No. C, reference compound] |  |  |  | ratio CB2 over CB1 agonism [1]: 36
18 | CC(C)(C)c1nc2cc(S(=O)(=O)c3ccoc3)ccc2n1CC1CCOCC1 [Co. No. D, reference compound] |  |  |  | ratio CB2 over CB1 agonism [1]: 26
19 | CC(C)(C)Cc1nc2cc(S(=O)(=O)c3ccncc3)ccc2n1CC1CCOCC1 [Co. No. E, reference compound] |  |  |  | ratio CB2 over CB1 agonism [1]: 219
